Reference: PubChem BioAssay AID1918934 (Molecular Pharmacology Branch, DTP, NCI, 2023)
pIC50: −log10 of the molar value.

System: 292921-168-R-J2-PDC complex spheroid viability
Experiment: Anticancer human tumor 292921-168-R-J2-PDC patient-derived pancreatic carcinoma cell line growth inhibition
Conditions: for pIC50: curve of first compound; for viability, T/C: stronger effect = lower value
From the text: Multicellular complex tumor spheroid response to LSD1 Inhibitor Iadademstat in combination with a variety of drugs and investigational agents in selected tumor cell lines
The current study was undertaken to assess response to LSD1 inhibitors in combination with standard-of-care drugs and investigational agents in solid tumor complex spheroid models as well as in the K-562 leukemia. Complex spheroids include a stromal component modeled by human endothelial cells (HUVEC) and fibroblasts modeled by human mesenchymal stem cells (MSCs). The concentration ranges selected for each drug and investigational agent were based upon clinically achievable concentrations if the clinical Cmax of the agent was known.
Compounds. The drugs and investigational agents used in this study are listed on Table 1. All of the agents used, including staurosporine (NSC755774) and gemcitabine (NSC613327), were obtained from the Developmental Therapeutics Program, NCI. FDA-approved anticancer drugs are available from the NCI at http://dtp.nci.nih.gov/branches/dscb/oncology_drugset_explanation.html. Drugs and investigational agents were >95% pure by proton nuclear magnetic resonance (NMR) and liquid chromatography/mass spectrometry (LC/MS). Stock solutions were prepared at 400x in DMSO, stored at -70 degrees C, and diluted in fresh medium prior to their use. The final concentration of DMSO in cell culture wells never exceeded 0.25% (v/v). The FDA-approved anticancer drug set is available from the Developmental Therapeutics Program at https://dtp.cancer.gov/organization/dscb/obtaining/available_plates.htm. All drugs and investigational agents were tested over a range starting from a high concentration at or near the clinical Cmax and decreasing in half-log increments. If the clinical Cmax for an agent had not been determined, the highest concentration tested was 10 microM.
Cell Lines. The patient-derived cancer cell (PDC) lines: 292921-168-R-J2-PDC, K24384-001-R-PDC, and 521955-158-R2-J5-PDC pancreatic carcinomas, 556581-035-R-J1 ovarian carcinoma, 324938-238-R-J1-PDC, 855422-203-R-J1-PDC and 883617-216-R-J1-PDC urothelial bladder carcinomas, 743489-274-T-PDC renal cell carcinoma, 138582-R-J1 Merkel cell tumor, K60290-347-R-J1 and K57222-313-R-J1-PDC glioblastomas, 653999-131-R-J2-PDC, LG0703-F948-PDC, and 349418-098-R-PDC non-small cell lung carcinomas, 885512-296-R-J2-PDC, 171881-019-R-J1-PDC breast carcinomas and 186277-243-T-J2-PDC and 233499-124-R-J2-PDC colon carcinomas were obtained from the NCI Patient-Derived Models Repository (PDMR, https://pdmr.cancer.gov). The established cell lines NCI/ADR-RES (RRID:CVCL_14520 and OVCAR-5 (RRID:CVCL_1628) ovarian carcinomas, 786-O (RRID:CVCL_1051) and A498 (RRID:CVCL_A498) renal cell carcinoma, NCI-H211 (ATCC, cat. CRL-5824; RRID:CVCL_1529), NCI-H196 (ATCC, cat. CRL-5823, RRID:CVCL_1509), SW 1271 (ATCC, cat. CRL-2177, RRID:CVCL_1716) and NCI-H1876 (ATCC, cat. CRL-5902, RRID:CVCL_1503) small cell lung carcinomas, MDA-MB-231 (RRID:CVCL_0062) and MDA-MB-468 (RRID:CVCL_0419)breast carcinomas (10-12). Pooled donor human umbilical vein endothelial cells (HUVEC, Lonza, cat. CC-2519) and human mesenchymal stem cells (hMSC, Lonza, cat. PT-2501) were purchased from Lonza (Walkersville, MD).
Cell Culture. All cells were maintained in an incubator at 37 degrees C and 5% CO2 with 95% humidity. The PDC lines were cultured according to standard operating procedures established by the NCI PDMR (https://pdmr.cancer.gov). Briefly all PDCs were thawed and cultured in Matrigel-coated flasks prepared with a working solution of 1X Ham's F-12 nutrient mix, without supplementation (Invitrogen, Waltham, MA, cat. 11765054), 100 U/mL penicillin-streptomycin (Invitrogen, cat. 15140122), and 2.5% Matrigel (Corning Inc., Corning, NY, cat. 354248) for the first three passages. […]
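Also: seven day compound exposure before luminescent viability read.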
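For viability, T/C in this document: 100% = DMSO vehicle control wells.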

O=C(c1cc(Cc2n[nH]c(=O)c3ccccc23)ccc1F)N1CCN(C(=O)C2CC2)CC1 + NC1CC1c1ccc(-c2cccc(O)c2)cc1 gave a pIC50 (second compound 0.1 µM) of 5.35, a pIC50 (second compound 0.316 µM) of 5.58 and a pIC50 (second compound 1 µM) of 5.66. It also gave a pIC50 (second compound 3.16 µM) of 5.86, a pIC50 (second compound 10 µM) of 6.56 and a viability, T/C (second compound 0.1 µM, first compound 0.0316 µM) of 89.5%. It also gave a viability, T/C (second compound 0.1 µM, first compound 0.1 µM) of 104%, a viability, T/C (second compound 0.1 µM, first compound 0.316 µM) of 78.8% and a viability, T/C (second compound 0.1 µM, first compound 1 µM) of 74.3%. The viability, T/C (second compound 0.1 µM, first compound 3.16 µM) was 58.1%, the viability, T/C (second compound 0.1 µM, first compound 10 µM) was 33.1% and the viability, T/C (second compound 0.316 µM, first compound 0.0316 µM) was 75%. For the same molecule, the viability, T/C (second compound 0.316 µM, first compound 0.1 µM) was 67.8%, the viability, T/C (second compound 0.316 µM, first compound 0.316 µM) was 67% and the viability, T/C (second compound 0.316 µM, first compound 1 µM) was 68.9%. For the same molecule, the viability, T/C (second compound 0.316 µM, first compound 3.16 µM) was 46.6%, the viability, T/C (second compound 0.316 µM, first compound 10 µM) was 31.2% and the viability, T/C (second compound 1 µM, first compound 0.0316 µM) was 60.1%. The viability, T/C (second compound 1 µM, first compound 0.1 µM) was 69.2%, the viability, T/C (second compound 1 µM, first compound 0.316 µM) was 64.5% and the viability, T/C (second compound 1 µM, first compound 1 µM) was 64.5%. The viability, T/C (second compound 1 µM, first compound 3.16 µM) was 43.1%, the viability, T/C (second compound 1 µM, first compound 10 µM) was 32.3% and the viability, T/C (second compound 3.16 µM, first compound 0.0316 µM) was 64.5%. For the same molecule, the viability, T/C (second compound 3.16 µM, first compound 0.1 µM) was 60.1%, the viability, T/C (second compound 3.16 µM, first compound 0.316 µM) was 63% and the viability, T/C (second compound 3.16 µM, first compound 1 µM) was 54.1%. For the same molecule, the viability, T/C (second compound 3.16 µM, first compound 3.16 µM) was 39%, the viability, T/C (second compound 3.16 µM, first compound 10 µM) was 32.8% and the viability, T/C (second compound 10 µM, first compound 0.0316 µM) was 61.3%. It also gave a viability, T/C (second compound 10 µM, first compound 0.1 µM) of 51.2%, a viability, T/C (second compound 10 µM, first compound 0.316 µM) of 53.6% and a viability, T/C (second compound 10 µM, first compound 1 µM) of 42.2%. The viability, T/C (second compound 10 µM, first compound 3.16 µM) was 34% and the viability, T/C (second compound 10 µM, first compound 10 µM) was 29.6%.
